# Measurements: patent US20230341397A1, “PROTEASE BIOSENSORS AND METHODS OF VIRUS DETECTION” (Montana Molecular LLC, priority 2020, published 2023)
# What was measured:
# [1] = test system: HEK 293 cells; settings: all GC376 concentrations (FIG. 11B)
# [2] = test system: feline infectious peritonitis virus (FPIV); settings: Kim et al. 2016; disease otherwise 100% lethal; cited from earlier work
compound,measurement,setting,value
CC(C)C[C@H](NC(=O)OCc1ccccc1)C(=O)N[C@@H](C[C@@H]1CCNC1=O)C(O)S(=O)(=O)[O-].[Na+] (some centres unmarked) [GC376],cell death / red fluorescent protein signal,[1],not due to cell death
same,outcome in cats with clinical FPIV,[2],rescues them
